Some results are limits rather than exact numbers.

Take `Cc1cc(F)ccc1Nc1nc(N(C)c2ccccc2)c2cccc(OCCCN(C)C)c2n1`: the melting point (usually the temperature of the solid-liquid transition) was in the range of 110 to 112 °C.

`O=[N+]([O-])c1ccc(NCCF)nc1` came in with a melting point of 126 to 127 °C.

As to `Nc1nnc(SCCCCc2ccccc2)s1`, the melting point was 111 °C.

Regarding `CC(=O)CCN(CCN)c1nc2cc(Cl)ccc2o1`, the melting point is 126 °C.

With `CSc1ccc(CSc2nnc(-c3ccc4[nH]ncc4c3)o2)cc1C(F)(F)F`, the melting point lay in the range of 184 to 185 °C.

Turning to `Oc1ccc(-c2nc3cc(O)cc(Br)c3o2)c(C(F)(F)F)c1`, the melting point lay in the range of 183 to 185 °C.

Regarding `CNC(=O)C1CCNc2ccccc21` (stereo not given), the melting point was found to be 107 °C.

`C=CC(=O)OCCCCCCCCOc1ccc(-c2ccc(OCCCCCCCCOC(=O)C=C)c(F)c2F)c(F)c1F` showed a melting point of 60.5 to 61.4 °C.

In the case of `CCCCc1ncc(/C=C(\Cc2cccs2)c2nnn[nH]2)n1Cc1cccc(Cl)c1Cl`, the melting point lay within 204 to 205 °C.

Consider `CC(=O)OC1CSC(Oc2ccc(-c3ccccn3)cc2)C(OC(C)=O)C1OC(C)=O` (stereo not given), for which the melting point was 125 to 130 °C.

`Cc1cc(C(F)(F)F)nc2nc(N)ccc12`: the melting point was 255 to 257 °C.

Molecule `Cc1cccc2cc(CN(Cc3cc(C(F)(F)F)cc(C(F)(F)F)c3)c3ncc(N4CCOCC4)cn3)c(N(CC3CC3)CC3CC3)nc12` had a melting point of 123 to 124 °C.

As to `CC(C)(C)c1ccc(C#N)cc1NC(=O)NCc1ccccc1`, the melting point fell in the range of 160 to 161 °C.

Regarding `C=Cc1cc(CNC(=O)C(F)=Cc2ccc(C(C)(C)C)cc2)cc(F)c1NS(C)(=O)=O`, the melting point lay within 165 to 167 °C.

`COC(=O)c1ccc(CCc2cnc3nc(N)nc(O)c3c2)cc1`: the melting point was above 300 °C.

For the molecule `COc1ccc2c3ccc(OC)cc3n(CCNC(=O)CS(C)(=O)=O)c2c1`, the melting point lay in the range of 175 to 177 °C.

In the case of `Cc1nnc2n1-c1sc3c(c1C(c1ccccc1Cl)=NC2)CCN(C(=S)Nc1ccccc1C(F)(F)F)C3`, the melting point was 190 to 192 °C.

Regarding `CCOc1ccc2[nH]c(=O)n(C3CCCC3)c2c1`, the melting point is 75 °C.

`CC(C(=O)O)c1ccc2sc3ncccc3c(=O)c2c1` (stereo not given) showed a melting point of 206 to 208 °C.

Regarding `c1cnc2c(c1)nnn2-c1ccncc1`, the melting point lay in the range of 196 to 198 °C.

For the molecule `CCN(CC)C(=O)Nc1ccc(NCc2ccccc2Cl)cc1N`, the melting point was 153 to 155 °C.

On to `COc1ccc(C)cc1NC(=O)Nc1ccc(N2CCN(C(=O)Nc3c(C)cccc3C(=O)O)CC2)cc1`, for which the melting point was 159 to 160 °C.

`Cc1oc(-c2cccc(-c3ccccc3)c2)nc1CCOc1cccc(OC(C)(C)C(=O)O)c1` had a melting point of 67 to 71 °C.

Consider `CC(C#CC1CC(Oc2ccc(F)cc2)C1)N(O)C(N)=O` (stereo not given), for which the melting point was 125 to 127 °C.

Molecule `O=C(Nc1ccc2c(c1)c1ccccc1n2CCO)c1ccccc1Cl` gave a melting point of 168 to 169 °C.

The molecule `CC(=O)N1CCN=C1Nc1cc(-c2ccccc2)nn1C` returned a melting point of 154 to 155 °C.

Take `O=C(O)c1c(Cc2cc3c(cc2Cl)OCO3)c(-c2cccs2)nn1CC1CCCC(C(=O)O)C1` (stereo not given): the melting point is above 260 °C.

Take `Cc1cc(Oc2ccc(Oc3ccc(N)c(C)c3)cc2)ccc1N`: the melting point is 150 to 151 °C.

As to `O=[N+]([O-])c1cccc(-c2ccc3[nH]c(=S)n(Cc4ccccc4)c3c2)c1`, the melting point was in the range of 244 to 245 °C.

`Oc1noc2ccc(Oc3ccc(C(F)(F)F)cc3Cl)cc12` showed a melting point of 167 to 170 °C.

Regarding `CCOC(=O)c1nccc2c(C)c3c(cc12)c1cc(O)ccc1n3CC`, the melting point worked out at 260 °C.

The molecule `CCOC(=O)c1c[nH]c2nc(N3CCN(C(=O)OCC)CC3)c(F)cc2c1=O` yielded a melting point of 279 to 281 °C.

`CCCCCCCCCCCC(=O)Nc1ccc(NC(=O)CCNC(=O)C2OC(C)(C)OCC2(C)C)cc1` (stereo not given) displayed a melting point of 144 to 145 °C.

In the case of `Cc1cc(F)ccc1NC(=O)CCC#Cc1cccc(CF)n1`, the melting point is 122 to 125 °C.

In turn, `Cc1oc(-c2ccccc2)nc1COc1ccc(CC2SC(=O)NC2=O)cn1` (stereo not given) yielded a melting point of 151 to 152 °C.

As for `COCCCn1c(CO)c(Cl)c2c3c(c(-c4ccccc4Cl)cc21)C(=O)NC3=O`, the melting point fell in the range of 214 to 215 °C.

The molecule `COc1cc2nc(O)nc(O)c2c(OC)c1OC` yielded a melting point above 250 °C.

For `Cc1c(-c2ccc(C=CC(=O)OC(C)(C)C)cc2)nc2n1CCc1ccccc1C2OC1CCN(C)CC1` (stereo not given), the melting point came to 185 °C.

As for `Cc1cc(Oc2ncc(C(F)(F)F)cc2Cl)nn1C(=O)Nc1ccc(Cl)c(Cl)c1`, the melting point was in the range of 150 to 152 °C.

With `COCC(O)COc1cccc2c1CCNC2=O` (stereo not given), the melting point was in the range of 119 to 123 °C.

`O=C(c1ccccc1)C(O)CC(Cl)CCCl` (stereo not given): the melting point was in the range of 39 to 41 °C.

`CC(C)(C)N(Cc1ccccc1)NC(=O)c1ccco1` came in with a melting point of 152 °C.

On to `COc1ccc(CCCOCCCCCNCC(O)c2cc(Cl)c(N)c(Cl)c2)cc1` (stereo not given), for which the melting point fell in the range of 63 to 64 °C.

`O=C(O)CNC(=O)Cc1ccc(Cl)cc1SC(=O)c1ccccc1`: the melting point was 158 to 159 °C.

Turning to `COC(=O)c1ccc2[nH]cc(CC#N)c2c1`, the melting point lay in the range of 127 to 129 °C.

In turn, `N#Cc1ccsc1C1=CC(=O)Nc2cc(-c3ccccc3F)ccc2N1` gave a melting point of 238 to 240 °C.

In turn, `Cc1nc(-c2ccc(-c3ccc(C(=O)O)cc3)c(C)c2)no1` came in with a melting point of 229 to 231 °C.

`C=CCn1cc(C(=O)O)c(=O)c2cc(F)c(N3CCN(C)CC3)cc21` had a melting point of 208 °C.

Molecule `O=c1[nH]c2ccccc2n1CCCN1CCC(C(O)(c2ccc(F)cc2)c2ccc(F)cc2)CC1` registered a melting point of 141 to 143 °C.

For the molecule `COC(=O)C[C@@H]1C(=O)NC[C@H](Cc2cc(F)ccc2OC)C(=O)N1S(=O)(=O)c1ccc(Cl)cc1`, the melting point is 73 to 76 °C.

As for `Cc1cc(C)nc(NC(=O)NS(=O)(=O)c2ccsc2C(=O)O)n1`, the melting point stood at 127 °C.

For `Cc1oc(-c2ccccc2)nc1CCOc1ccc(/C=C/C=C/CO)cc1`, the melting point was 132 to 133 °C.

In turn, `COc1ccc2c(c1)c(-c1cc3c(C(=O)N4CCOCC4)ccnc3[nH]1)cn2C` showed a melting point of 259 to 260 °C.

Consider `CC=C(C)C(=O)c1c(O)c2c(c3c(CCC)cc(=O)oc13)OC(C)(C)C=C2`, for which the melting point fell in the range of 110 to 112 °C.

For `CCOC(=O)Nc1nc2cc(C(O)c3ccccc3)ccc2[nH]1` (stereo not given), the melting point was above 315 °C.

`COc1ccc2c(c1)CCc1cc(Nc3ccc(F)cc3F)ccc1C2=O` showed a melting point of 157 °C.

As to `O=C(O)CCCCCCC(=O)c1cccnc1`, the melting point is 113 to 115 °C.

In turn, `CC(C)=CCCC(C)=CC=C1SC(=S)N(CC(=O)O)C1=O` displayed a melting point of 95 to 98 °C.

Molecule `CCC(C)Nc1cc(-c2ccc(Cl)cc2)nc2nn(C)cc12` (stereo not given) came in with a melting point of 208 to 209 °C.

Regarding `O=c1[nH][nH]c(=O)n1CCCl`, the melting point was in the range of 192 to 193 °C.

As for `Clc1ccc(Nc2ncnc(-c3ccnc(N4CCCCC4)c3)n2)cc1`, the melting point lay within 205 to 206 °C.

For the molecule `O=C(c1ccc(C2CCCCC2)cc1)N1Cc2cccn2Cc2ccccc21`, the melting point is 127 to 129 °C.

In the case of `Cc1cc(C)cc(-c2nc(CCl)co2)c1`, the melting point is 76 to 77 °C.

Take `Cc1c(C(=O)O)nnn1Cc1ccccc1Cl`: the melting point was 186 to 187 °C.

For the molecule `N#C[C@H](O)c1cccc(Oc2ccccc2)n1`, the melting point came to 95 °C.

The molecule `c1ccc(CCc2cc3cccnc3[nH]2)cc1` gave a melting point of 157 to 158 °C.

`O=CNC1(c2ccccc2)CCN(Cc2ccccc2)CC1` displayed a melting point of 140 °C.

`COc1ccc(-c2[nH]nc3c2C(=O)c2c(NC(=O)C(C)C)cccc2-3)cc1` displayed a melting point of 288 °C.

Molecule `CC1=C(C(=O)Nc2cc(C(=O)OC(C)C)ccc2F)SCCO1` returned a melting point of 132 to 135 °C.

Consider `CSc1cc(C)nc(SC)c1NC(=O)CSc1nc2ccccc2o1`, for which the melting point is 203 to 205 °C.

Molecule `Cc1c(NC(=O)c2ccc(OC[C@@H]3CCCO3)cc2)ccc2cc(CNCC3CCOCC3)[nH]c12` gave a melting point of 161 to 162 °C.

Turning to `Oc1cc(=S)sc2cccc(C(F)(F)F)c12`, the melting point fell in the range of 142 to 144 °C.

In the case of `O=S(=O)(Nc1ccccc1NCCOc1ccc(Cl)cc1)c1ccc(Cl)cc1`, the melting point came out at 158 °C.

In the case of `COc1ccc([N+](=O)[O-])cc1OC(F)F`, the melting point lay within 48 to 49 °C.

`CC(=O)SCC(=Cc1cc(F)cc(F)c1)C(=O)NCCC(=O)OCc1ccccc1` showed a melting point of 82 °C.

In turn, `CC(C)SN(c1ccccc1)P(=O)(c1ccccc1)c1ccccc1` registered a melting point of 148 to 150 °C.

Molecule `COC(OC)C(C)Nc1cc(OCc2ccccc2)ccc1[N+](=O)[O-]` (stereo not given) registered a melting point of 57 to 62 °C.

As for `CC(O)c1ccc(-c2ccc(N)cc2)o1` (stereo not given), the melting point fell in the range of 100 to 104 °C.

Turning to `CCC12CCC3c4ccc(OC)cc4C(C)CC3C1CCC21OCCO1` (stereo not given), the melting point fell in the range of 130 to 134 °C.

As for `Cc1ccc(C(=S)c2ccc(F)cc2)cc1`, the melting point came out at 88 °C.

As for `CCCCOc1cc(/C=C(\OCC)C(=O)O)ccc1OCCc1ccc(OS(=O)(=O)CCCC)cc1`, the melting point was determined as 96 °C.

On to `O=C(Nc1ccc(Cl)cc1)O[C@@H]1CN=C(c2ccccc2)O[C@H]1c1ccccc1` (racemic), for which the melting point was found to be 124 °C.

Molecule `CCOC(=O)c1cc2c(nc(C)n2C)c2c1CCC1(Cc3ccccc3C1)N2` yielded a melting point of 167 to 168 °C.

Molecule `N#Cc1c(Br)c(-c2ccc(Cl)cc2)n(C(=O)c2ccccc2)c1Cl` returned a melting point of 179 to 181 °C.

`CN(C)CCCOc1ccc(C(=O)NN)cc1F`: the melting point was in the range of 109 to 111 °C.

For the molecule `Cc1sc(C)c2c(=O)n3cc(C(N)=O)ccc3nc12`, the melting point was in the range of 272 to 275 °C.

Turning to `COc1ccc2ncc([N+](=O)[O-])c(O)c2c1`, the melting point is 278 to 281 °C.

For the molecule `CCCCCC(O)CCn1[nH]c(=O)n(C)c1=O` (stereo not given), the melting point fell in the range of 85 to 88 °C.

In turn, `COc1ccc(OCc2ccccn2)cc1/C=C/c1cc(/C=C/c2ccc3cc[nH]c3c2)n[nH]1` had a melting point of 111 to 120 °C.

For `C=CCC(CC=C)(C(=O)NO)S(=O)(=O)c1ccc(OC)cc1`, the melting point lay within 114 to 116 °C.

For the origin of these results see a melting point compilation (Tetko et al.; mined from patent text by program, amines drawn as free bases though some values may be those of a salt).
